What was measured:
[1] = test system: MDA-MB-231-luc tumors; test: TCM-induced metastasis model; format: in vivo, mice
Description: TCM-Induced Metastasis Model.
Before tumor inoculation, athymic nude mice (female 5-6 weeks, 18-20 g) were treated with 50 μL TCM or SFM subcutaneously through the scruff for 2 weeks. After 2 weeks of TCM treatment, MDA-MB-231-luc-D3H2LN tumor xenografts were established in the same animals; the cells (2×10^6) were mixed with 50 μL complete media (RPMI-1640 supplemented with 10% FBS), and 50 μL Matrigel (High Concentrated, BD Biosciences) and injected into the upper inguinal mammary fat pad of the animals under anesthesia (50 mg/kg ketamine+5 mg/kg acepromazine in PBS, 50 μL/animal, intraperitoneally dosed). The primary tumor size was measured by using a caliper, and the volume w calculated, using the formula: V=0.52×a×b^2, where ‘a’ is the long axis, and ‘b’ is the short axis of the tumor. Animals were also imaged every week to track anterior tumor metastases, using the IVIS Xenogen 200 optical imager (Xenogen, Alameda, Calif.) after intraperitoneal injection of d-luciferin (Caliper 150 mg/kg). 100 μL D-luciferin (twice diluted) was intraperitoneally dosed on both sides of the abdomen (total 200 μL/animals) to prevent i.p. injection failure. […] Luciferase-mediated photon flux was quantified by using Living Image® 3D Analysis (Xenogen), and the average photon flux was obtained from eight lungs, eight brains, and 14-16 LNs as described before. […]

[2] = test system: neovasculature in laser induced CNV; test: CNV regression model; format: in vivo, mice; details: mouse eye; free peptide; FIG. 14
Description: Bruch's membranes of both eyes of C57BL/6J mice were ruptured with a laser after anesthetizing the mice and dilating their pupils with 1% tropicamide. Seven days later, some mice were sacrificed to establish baseline neovascularization. At that time, 1 μg of SP2043 (SEQ ID NO: 1) was administered in one eye and vehicle in the fellow eye of other mice. Seven days later, all animals were perfused with fluorescein-labeled dextran, eyes removed, the retina dissected and flatmounted after making radial cuts, and fluorescence was measured. The images were digitized using a 3-color charge-coupled device video camera and a frame grabber and the area of hypervascularization was quantified by image-analysis software.

[3] = test system: lymphatic endothelial cell (LEC); test: LEC tube formation assay; format: cell-based; details: FIG. 5
[4] = test system: triple-negative breast cancer cell line MDA-MB-231; test: Proliferation assay (WST-1), MDA-MB-231; format: cell-based, human; details: in vitro; FIG. 7
Description: (§1) A colorimetric based proliferation assay using WST-1 (Roche, 11644807001) proliferation reagent was carried out using HREC cells, HUVEC cells, and the breast cancer cells MDA-MB-231, MCF-7, and SUM149. 2000 cells/well were plated in 96-well plates and allowed to adhere overnight. On the following day, the media was exchanged with fully supplemented media containing peptides or equivalent DMSO vehicle for the controls. Three days later, the media containing the peptides was replaced with serum-free EBM-2 media containing WST-1 reagent and the plates were incubated for four hours as per the manufacturer's recommendations. Changes in color, due to the formazan dye resulted from the cleavage of the tetrazolium salt WST-1 by the mitochondrial succinate-tetrazolium reductase, were read on a Victor V fluorescence plate reader (Perkin Elmer, Mass.) by measuring the absorbance at 450 nm. Dose response curves of percent live cells (in comparison to untreated cells, but incubated in complete media with 0.2% DMSO) were created. Assays were performed in at least two independent replicates and each replicate was performed using three experimental triplicates.

[5] = test system: human retinal endothelial cells (HREC); test: Migration assay (RT-CIM), HREC; format: cell-based; details: FIG. 2
Description: The inhibitory potential of the peptides was measured using a real time migration assay system based on electrical impedance (RT-CIM, ACEA Biosciences, CA). CIM 16 well plates (Roche, 05665817001) are composed of a top and bottom chamber separated by a microporous (8 μm) polycarbonate membrane. The membrane was coated with fibronectin (20 μg/mL), and 45,000 cells/well in serum free media with or without peptides were added to the top compartment. Media with chemoattractant (i.e., fully supplemented EBM-2) was added to the bottom compartment of the chamber and the plate was incubated at 37° C. for 20 hours. The sensors integrated on the bottom side of the membrane monitor and continuously record changes in impedance as the cells move through the membrane. The RT-CIM technology allows for easy quantification of cell migration by monitoring the cell index derived from the measured impedances. Assays were performed in at least two independent replicates and each replicate was performed using two experimental duplicates. Breast cancer cells MDA-MB-231 are not suitable for the RT-CIM type experiments due to their thin elongated phenotype, thus the inhibition of migration was investigated using a wound healing type assay. This assay was performed using the Oris Pro Migration assay (Platypus Technologies, CMA 1.101). […]

[6] = test system: estrogen receptor positive cell line MCF-7; test: Proliferation assay (WST-1), MCF-7; format: cell-based; details: in vitro; FIG. 7
Description: as §1

[7] = test system: human umbilical vein endothelial cells (HUVEC); test: Adhesion assay (RT-CIM), HUVEC; format: cell-based; details: FIG. 1
Description: Similar to the migration assays, the inhibition activity of the peptide in cellular adhesion was assessed using the RT-CIM technology. In this case, 25,000 cells/well were plated in 16 wells E-plates (Roche, Basel Switzerland) in the presence or absence of the peptide. The adhesion was monitored over time (3 hours) by measuring changes in the electrical impedance, which is a direct measure of the cells adhering on the electrodes. Assays were performed in at least two independent replicates and each replicate was performed using two experimental duplicates.

LRRFSTAPFAFIDINDVINF (Artificial sequence based on human Collagen Type IV protein) [SP2043]
metastasis of MDA-MB-231-luc tumors to lymph nodes, vimentin antibody staining for human cells ([1]; FIG. 12B): inhibited | metastasis of MDA-MB-231-luc tumors to multiple organs, photon flux from tumor cells ([1]; tumor-conditioned media pre-treated metastasis model, FIG. 12A): inhibited | regression of the neovasculature in laser induced CNV model [2]: caused regression | LEC tube formation [3]: inhibit | proliferation of MDA-MB-231 [4]: inhibit | migration of HREC [5]: inhibit | proliferation of MCF-7 [6]: inhibit | adhesion of HUVEC [7]: inhibit
